Experimental data reported in patent publication US20220282271A1, “HERBICIDE RESISTANT PLANTS AND METHODS OF MAKING AND USING” (OFFICE OF INNOVATION ADVANCEMENT AND COMMERCIALIZATION, priority 2019, published 2022).

Tests used:
[1] = target: recombinant variant E. indica PPO1 A212T (Eleusine indica, UniProt A0A6G5XNV7, A212T); assay: In vitro PPO enzyme activity inhibition, variant PPO1 A212T; assay type: biochemical
Source text: Effects of A212T substitution were studied using the E. indica backbone. The wild-type E. indica PPO1 and the E. indica PPO1 A212T variants were synthesized de novo and subcloned into pRSetB plasmid (Invitrogen, Carlsbad, Calif.). The complete description of expression and purification of E. indica PPO1 and E. indica PPO1 A212T variant proteins were referenced to the method described for PPO2 by Rangani et al. (2019, Frontiers in Plant Sci., 10:568). Six PPO inhibitors, belonging to five different chemical families, were evaluated on the PPO enzyme activity at a concentrations ranging from 5.00×10^−5M to 5.12×10^−12M. Oxadiazon, sulfentrazone, saflufenacil and lactofen are from the class of oxadiazole, triazolinone, pyrimidinedione, and diphenyl ether, respectively. Flumioxazin and trifludimoxazin are from the same chemical family, N-phenylphthalimide. […] The assay was replicated twice.

Abutilon theophrasti = assay: Weed control screen: velvetleaf; assay type: in vivo; conditions: 1.0 lb ai/a, applied approximately 3 weeks after emergence, relative to non-treated
Description: (§1) Herbicides were applied at a spray volume of 280 L/ha with no adjuvant added to any herbicide mixture. Weed control was rated on a 0 to 100 percent phytoxicity scale with 0 being no plant injury/phytotoxicity and 100 being complete plant dessication. Twenty-one weeds were evaluated for response to herbicides (Table 3). The weeds selected were a mixture of weeds common in agronomic and horticultural crops. Herbicide was applied to all species approximately 3 weeks after emergence. Plant phytotoxicity rated as percent control relative to the non-treated.

Eleusine indica = assay: Weed control screen: goosegrass; assay type: in vivo; conditions: 1.0 lb ai/a, applied approximately 3 weeks after emergence, relative to non-treated
Description: as §1

[2] = tested on: Eleusine indica biotypes (S, R1, R2); assay: Herbicide rate screening assay (greenhouse, foliar-applied, visual injury); assay type: in vivo; conditions: for I50, estimated rate required to reduce Eleusine indica biotype by 50% (Visual Control/Injury) / I90, estimated rate required to reduce Eleusine indica biotype by 90% (Visual Control/Injury): injury scores 14 days after treatment; for Parameter estimate a of sigmoidal model y = a/(1 + exp(−(x − x0)/b)) for percent injury / Parameter estimate b of sigmoidal model y = a/(1 + exp(−(x − x0)/b)) for percent injury / Parameter estimate x0 of sigmoidal model y = a/(1 + exp(−(x − x0)/b)) for percent injury: x = log-transformed herbicide rate (kg/ha), 14 DAT; for Control at labelled rate application: oxadiazon 2.24 kg/ha
Source text: Three E. indica biotypes from different locations were used in this study. The R1 biotype was collected in Country Club of Virginia, Richmond, Va., and the R2 biotype was from River Bend Golf, New Bern, N.C. These two biotypes were previous confirmed resistant to preemergence application of oxadiazon, but have not been screened to other PPO inhibitors. The S biotype was collected from the Alabama Agricultural Experiment Station, Plant Breeding Unit, Tallassee, Ala., which was confirmed susceptible to PPO inhibitors. Seeds of the mature plants were harvested, air dried and stored in the 4° C. freezer until planted in the greenhouse.
Greenhouse conditions were 30±3° C. at day/night temperature and ˜70% average relative humidity. The E. indica seeds were placed on the soil surface and lightly covered with sand in 28 cm*20 cm flats and watered as needed daily to ensure germination. Two weeks after emergence, seedlings were separated and transplanted to in individual 10-cm pots (volumes=0.5 L). Pots were filled with surface horizon of Marvyn sandy loam (fine-loamy, kaolinitic, thermic Typic Kanhapludults) soil with pH 6.4 and 1.2% organic matter. The plants were irrigated three times daily for 2 min with overhead irrigation and fertilized once at one week after transplanting at approximately 50 kg N ha^−1 with Scott's Miracle-Gro All-Purpose fertilizer (The Scotts Miracle-Gro Co. Marysville, Ohio). Plants were 5-10 cm in height with 3-5 tillers in size at the time of herbicide treatment.
Herbicide treatments were foliar-applied at 280 L/ha using an enclosed spray chamber with a single 8002E nozzle (TeeJet Spray Systems Co, Wheaton, Ill.) at 32 PSI. Four herbicides were selected for the experiment: oxadiazon (Ronstar FLO, Bayer Environmental Sci., Research Triangle Park, N.C.), sulfentrazone (Dismiss, FMC Corporation, Philadelphia, Pa.), flumioxazin (Sureguard, Valent Corp., Walnut Creek, Calif.) and lactofen (Cobra, Valent Corp., Walnut Creek, Calif.). All the herbicides are from different herbicide chemical families of PPO inhibitors: oxadiazoles, triazolinone, N-phenylphthalimide and diphenyl ether, respectively. Herbicides were applied at 7 different rates based on each herbicide label rate: oxadiazon ranging from 0.14 to 8.96 kg/ha, sulfentrazone from 0.07 to 4.50 kg/ha, flumioxazin from 0.08 to 5.70 kg/ha, and lactofen from 0.029 to 1.75 kg/ha. A non-treated control (0 kg/ha) was included. 192 plants of each biotype were tested and experiments were conducted as completely random design, three replications for two runs.
The visual injury rating scores per plant at 14 days after treatment (DAT) were recorded, where the visual injury rating scores were based on a 0 to 100 scale, which 0 is equated to no phytotoxicity and 100 is equated to complete control. Data subjected to ANOVA analysis at a significance level of P<0.05 using the PROC GLM procedure of SAS 9.4 (SAS Institute Inc., Cary, N.C.). All the herbicide rates were log transformed to make equal spacing between the herbicide treatments in order to facilitate regression analysis. The non-treated control was transformed to equal spacing based on the log rates of each herbicide, respectively. Data were fitted to a sigmoidal model using SigmaPlot 10.2 (Systat Software Inc., London, UK) using a sigmoidal function (Equation 1).
y=a/(1+e^(−((x−x0)/b))) (1)
In this fit sigmoidal model, where y represents E. indica visual damage relative to non-treated control (%), x represents the log-transformed herbicide rates (kg/ha), three parameters (a, b, x0) represents the y intercept.

Murdannia nudiflora = assay: Weed control screen: doveweed; assay type: in vivo; conditions: 1.0 lb ai/a, applied approximately 3 weeks after emergence, relative to non-treated
Description: as §1

Sesbania exaltata = assay: Weed control screen: hemp sesbania; assay type: in vivo; conditions: 1.0 lb ai/a, applied approximately 3 weeks after emergence, relative to non-treated
Description: as §1

Albizia julibrissin = assay: Weed control screen: silktree; assay type: in vivo; conditions: 1.0 lb ai/a, applied approximately 3 weeks after emergence, relative to non-treated
Description: as §1

Ipomoea coccinea = assay: Weed control screen: red morningglory; assay type: in vivo; conditions: 1.0 lb ai/a, applied approximately 3 weeks after emergence, relative to non-treated
Description: as §1

Conyza candensis = assay: Weed control screen: glyphosate-resistant horseweed; assay type: in vivo; conditions: 1.0 lb ai/a, applied approximately 3 weeks after emergence, relative to non-treated
Description: as §1

Amaranthus hybridus = assay: Weed control screen: smooth pigweed; assay type: in vivo; conditions: 1.0 lb ai/a, applied approximately 3 weeks after emergence, relative to non-treated
Description: as §1

Cyperus iria = assay: Weed control screen: rice flatsedge; assay type: in vivo; conditions: 1.0 lb ai/a, applied approximately 3 weeks after emergence, relative to non-treated
Description: as §1

Chain of recombinant variant E. indica PPO1 A212T (A0A6G5XNV7 entry or part of it A212T): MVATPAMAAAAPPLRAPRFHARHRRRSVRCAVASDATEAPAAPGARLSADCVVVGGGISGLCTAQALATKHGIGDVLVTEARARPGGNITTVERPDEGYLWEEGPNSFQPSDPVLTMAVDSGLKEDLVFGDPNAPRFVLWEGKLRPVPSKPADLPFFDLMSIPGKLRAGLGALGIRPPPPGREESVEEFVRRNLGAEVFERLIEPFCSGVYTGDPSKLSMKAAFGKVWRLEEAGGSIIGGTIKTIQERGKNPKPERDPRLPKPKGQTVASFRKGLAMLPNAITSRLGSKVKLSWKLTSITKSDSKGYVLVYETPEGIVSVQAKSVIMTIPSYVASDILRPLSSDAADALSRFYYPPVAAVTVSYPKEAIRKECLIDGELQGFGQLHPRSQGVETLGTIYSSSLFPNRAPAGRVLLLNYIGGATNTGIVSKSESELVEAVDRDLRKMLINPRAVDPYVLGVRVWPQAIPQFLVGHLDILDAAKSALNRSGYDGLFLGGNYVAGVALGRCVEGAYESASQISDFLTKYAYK

In the case of `CC(C)Oc1cc(-n2nc(C(C)(C)C)oc2=O)c(Cl)cc1Cl` [Oxadiazon, oxadiazon], the IC50 [1] is reported as greater than 10 µM, the inhibition at 10 µM ([1]; read-out: Variant E. indica PPO1 A212T % inhibition) is reported as 16% and the “Percent control (0 to 100)” value (Abutilon theophrasti) is reported as 100%. For the same molecule, the “Percent control (0 to 100)” value (Eleusine indica) was 100%, the “Increased resistance of oxadiazon resistant biotypes than the susceptible biotype” value ([2]; R1 and R2 vs S biotype, post-emergence applied) was “up to 20 fold” and the “I50, estimated rate required to reduce Eleusine indica biotype by 50% (Visual Control/Injury)” value ([2]; R1 biotype) was 8.15 kg ha^−1. The “I90, estimated rate required to reduce Eleusine indica biotype by 90% (Visual Control/Injury)” value ([2]; R1 biotype) was 14.60 kg ha^−1, the “Parameter estimate a of sigmoidal model y = a/(1 + exp(−(x − x0)/b)) for percent injury” value ([2]; R1 biotype) was 9925.40 and the “Parameter estimate b of sigmoidal model y = a/(1 + exp(−(x − x0)/b)) for percent injury” value (from here on “Parameter estimate b … for percent injury”) ([2]; R1 biotype) was 0.53. For the same molecule, the “Parameter estimate x0 of sigmoidal model y = a/(1 + exp(−(x − x0)/b)) for percent injury” value (from here on “Parameter estimate x0 … for percent injury”) ([2]; R1 biotype) was 3.75, the “I50, estimated rate required to reduce Eleusine indica biotype by 50% (Visual Control/Injury)” value ([2]; R2 biotype) was 8.88 kg ha^−1 and the “I90, estimated rate required to reduce Eleusine indica biotype by 90% (Visual Control/Injury)” value ([2]; R2 biotype) was 18.29 kg ha^−1. The “Parameter estimate a of sigmoidal model y = a/(1 + exp(−(x − x0)/b)) for percent injury” value ([2]; R2 biotype) was 64371.40, the “Parameter estimate b … for percent injury” value ([2]; R2 biotype) was 0.43 and the “Parameter estimate x0 … for percent injury” value ([2]; R2 biotype) was 3.99. The “I50, estimated rate required to reduce Eleusine indica biotype by 50% (Visual Control/Injury)” value ([2]; S biotype) was 0.32 kg ha^−1, the “I90, estimated rate required to reduce Eleusine indica biotype by 90% (Visual Control/Injury)” value ([2]; S biotype) was 1.56 kg ha^−1 and the “Control at labelled rate application” value ([2]; S biotype) was greater than 80%. For the same molecule, the “Parameter estimate a of sigmoidal model y = a/(1 + exp(−(x − x0)/b)) for percent injury” value ([2]; S biotype) was 91.25, the “Parameter estimate b … for percent injury” value ([2]; S biotype) was 0.25 and the “Parameter estimate x0 … for percent injury” value ([2]; S biotype) was −0.54. For the same molecule, the “Control at labelled rate application” value ([2]; resistant biotypes (R1 and R2), flumioxazin 0.357 kg/ha, sulfentrazone 0.28 kg/ha, lactofen 0.22 kg/ha) was less than 20%, the “Control at labelled rate application” value ([2]; resistant biotypes (R1 and R2), flumioxazin 0.357 kg/ha, sulfentrazone 0.28 kg/ha, lactofen 0.22 kg/ha, listed as oxadiazon) was “less than 10%” and the “Percent control (0 to 100)” value (Murdannia nudiflora) was 0%. The “Percent control (0 to 100)” value (Sesbania exaltata) was 100%, the “Percent control (0 to 100)” value (Albizia julibrissin) was 50% and the “Percent control (0 to 100)” value (Ipomoea coccinea) was 100%. For the same molecule, the “Percent control (0 to 100)” value (Conyza candensis) was 30%, the “Percent control (0 to 100)” value (Amaranthus hybridus) was 100% and the “Percent control (0 to 100)” value (Cyperus iria) was 60%.
